Key:
Format in all cases: in vivo
corn (Zea mays) = experiment: Test A pre-/postemergence plant response
In short: (§1)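 Pre: directed soil spray on seeded loam/sand blend. Post: same formulation (non-phytotoxic solvent + surfactant) on 2–10 cm plants, 1–2 leaf stage. Greenhouse ~10 d; visual injury score 0–100 vs untreated.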

[1] = test system: large crabgrass (Digitaria sanguinalis); experiment: Test A pre-/postemergence plant response
In short: as §1

[2] = test system: velvetleaf (Abutilon theophrasti); experiment: Test A pre-/postemergence plant response
In short: as §1

[3] = test system: barnyardgrass (Echinochloa crus-galli); experiment: Test A pre-/postemergence plant response
In short: as §1

[4] = test system: pigweed (Amaranthus retroflexus); experiment: Test A pre-/postemergence plant response
In short: as §1

[5] = test system: wheat (Triticum aestivum); experiment: Test A pre-/postemergence plant response
In short: as §1

[6] = test system: morningglory (Ipomoea spp.); experiment: Test A pre-/postemergence plant response
In short: as §1

[7] = test system: giant foxtail (Setaria faberii); experiment: Test A pre-/postemergence plant response
In short: as §1

[8] = test system: barnyardgrass (Echinochloa crus-galli); experiment: Test B flooded paddy test; conditions: for Plant response rating, Flood, Barnyardgrass: 250 g ai/ha, flooded paddy test, visual rating on 0 to 100 scale (0 no effect, 100 complete control) after 13 to 15 days; for Plant response rating, Barnyardgrass: Flood (flooded paddy test), 13 to 15 days
In short: (§2)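 Seedlings reaching 2 leaves are flooded 3 cm deep; test material is delivered to that water, which stays at the same depth. Plants remain in a greenhouse 13–15 days and are then scored by eye versus controls from 0 to 100.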

rice (Oryza sativa) = experiment: Test B flooded paddy test; conditions: for Plant response rating, Flood, Rice: 250 g ai/ha, flooded paddy test, visual rating on 0 to 100 scale (0 no effect, 100 complete control) after 13 to 15 days; for Plant response rating, Rice: Flood (flooded paddy test), 13 to 15 days
In short: as §2

[9] = test system: ducksalad (Heteranthera limosa); experiment: Test B flooded paddy test; conditions: for Plant response rating, Flood, Ducksalad: 250 g ai/ha, flooded paddy test, visual rating on 0 to 100 scale (0 no effect, 100 complete control) after 13 to 15 days; for Plant response rating, Ducksalad: Flood (flooded paddy test), 13 to 15 days
In short: as §2

[10] = test system: umbrella sedge (Cyperus difformis); experiment: Test B flooded paddy test; conditions: for Plant response rating, Flood, Sedge, Umbrella: 250 g ai/ha, flooded paddy test, visual rating on 0 to 100 scale (0 no effect, 100 complete control) after 13 to 15 days; for Plant response rating, Sedge, Umbrella: Flood (flooded paddy test), 13 to 15 days
In short: as §2

[11] = Postemergence, 125 g ai/ha, 0 to 100 scale where 0 is no effect and 100 is complete control
[12] = Postemergence, 500 g ai/ha, 0 to 100 scale, 0 = no effect, 100 = complete control, approx. ten days
[13] = Preemergence, 125 g ai/ha, 0 to 100 scale, 0 = no effect, 100 = complete control
[14] = Preemergence, 500 g ai/ha, visual injury, 0 to 100 scale (0 no effect, 100 complete control), approx. ten days
[15] = Preemergence, 500 g ai/ha, 0 to 100 scale, 0 = no effect, 100 = complete control
[16] = 62 g ai/ha, scale of 0 to 100 where 0 is no effect and 100 is complete control
[17] = 125 g ai/ha, scale 0 to 100, 0 is no effect, 100 is complete control
[18] = Flood, 31 g ai/ha, scale 0 to 100 (0 no effect, 100 complete control)

Cc1ccc(F)cc1-n1c(-c2cccc(Br)c2)ncc(C(=O)C2=C(O)CCCC2=O)c1=O [Compound 154]
50: Plant response rating, Crabgrass, Large [1, 14] | Plant response rating, Ducksalad [9, 16]
75: Plant response rating, Flood, Rice (rice (Oryza sativa))
95: Plant response rating, Sedge, Umbrella [10, 16] | Plant response rating, Sedge, Umbrella [10, 17]
90: Plant response rating, Barnyardgrass [3, 11] | Plant response rating, Barnyardgrass [3, 12] | Plant response rating, Foxtail, Giant [7, 12]
80: Plant response rating, Velvetleaf [2, 15] | Plant response rating, Pigweed [4, 14]
30: Plant response rating, Pigweed [4, 13] | Plant response rating, Morningglory [6, 11] | Plant response rating, Foxtail, Giant [7, 14]
40: Plant response rating, Velvetleaf [2, 13] | Plant response rating, Barnyardgrass [3, 14] | Plant response rating, Flood, Barnyardgrass [8]
60: Plant response rating, Pigweed [4, 11] | Plant response rating, Foxtail, Giant [7, 11] | Plant response rating, Rice (rice (Oryza sativa); [17])
100: Plant response rating, Crabgrass, Large [1, 12] | Plant response rating, Velvetleaf [2, 11] | Plant response rating, Velvetleaf [2, 12] | Plant response rating, Pigweed [4, 12] | Plant response rating, Flood, Ducksalad [9] | Plant response rating, Flood, Sedge, Umbrella [10]
10: Plant response rating, Corn (corn (Zea mays); [12]) | Plant response rating, Crabgrass, Large [1, 13] | Plant response rating, Foxtail, Giant [7, 13]
0: Plant response rating, Corn (corn (Zea mays); [11]) | Plant response rating, Corn (corn (Zea mays); [13]) | Plant response rating, Corn (corn (Zea mays); [14]) | Plant response rating, Barnyardgrass [3, 13] | Plant response rating, Wheat [5, 11] | Plant response rating, Wheat [5, 12] | Plant response rating, Wheat [5, 13] | Plant response rating, Wheat [5, 15] | Plant response rating, Morningglory [6, 13] | Plant response rating, Morningglory [6, 14] | Plant response rating, Barnyardgrass [8, 16] | Plant response rating, Barnyardgrass [8, 17] | Barnyardgrass plant response rating [8, 18] | Plant response rating, Rice (rice (Oryza sativa); [16]) | Rice plant response rating (rice (Oryza sativa); [18]) | Ducksalad plant response rating [9, 18] | Sedge, Umbrella plant response rating [10, 18]
70: Plant response rating, Crabgrass, Large [1, 11] | Plant response rating, Morningglory [6, 12] | Plant response rating, Ducksalad [9, 17]

CCCn1c(-c2ccn(C)n2)ncc(C(=O)C2=C(O)CCCC2=O)c1=O [Compound 135]
100: Plant response rating, Velvetleaf [2, 11] | Plant response rating, Velvetleaf [2, 12]
40: Plant response rating, Crabgrass, Large [1, 11] | Plant response rating, Crabgrass, Large [1, 14] | Plant response rating, Velvetleaf [2, 13] | Plant response rating, Pigweed [4, 13] | Plant response rating, Flood, Ducksalad [9]
10: Plant response rating, Barnyardgrass [3, 11]
90: Plant response rating, Pigweed [4, 12] | Plant response rating, Morningglory [6, 12]
0: Plant response rating, Corn (corn (Zea mays); [11]) | Plant response rating, Corn (corn (Zea mays); [12]) | Plant response rating, Corn (corn (Zea mays); [13]) | Plant response rating, Corn (corn (Zea mays); [14]) | Plant response rating, Crabgrass, Large [1, 13] | Plant response rating, Barnyardgrass [3, 13] | Plant response rating, Barnyardgrass [3, 14] | Plant response rating, Wheat [5, 11] | Plant response rating, Wheat [5, 12] | Plant response rating, Wheat [5, 13] | Plant response rating, Wheat [5, 14] | Plant response rating, Foxtail, Giant [7, 11] | Plant response rating, Foxtail, Giant [7, 12] | Plant response rating, Foxtail, Giant [7, 13] | Plant response rating, Foxtail, Giant [7, 14] | Plant response rating, Flood, Barnyardgrass [8] | Plant response rating, Barnyardgrass [8, 16] | Plant response rating, Flood, Rice (rice (Oryza sativa)) | Plant response rating, Rice (rice (Oryza sativa); [16]) | Plant response rating, Flood, Sedge, Umbrella [10] | Plant response rating, Sedge, Umbrella [10, 16]
80: Plant response rating, Pigweed [4, 11] | Plant response rating, Pigweed [4, 14]
20: Plant response rating, Morningglory [6, 13]
70: Plant response rating, Crabgrass, Large [1, 12] | Plant response rating, Velvetleaf [2, 14] | Plant response rating, Morningglory [6, 11]
30: Plant response rating, Barnyardgrass [3, 12] | Plant response rating, Ducksalad [9, 16]
50: Plant response rating, Morningglory [6, 14]
